The IC50 is the midpoint of a concentration-inhibition curve. Usually AUC stands for the area under the concentration-time curve, a measure of exposure. A word on the MRT: it is the average time that molecules of a dose stay in the body.

Data set [1] has as its target TGFβRI kinase ALK5 (Homo sapiens (Human), UniProt P36897). Kind of data set: Inhibition of TGFβRI kinase ALK5 activity (TGFβRI kinase assay kit, ADP-Glo). The class given is biochemical. The following applies: ATP 50 μM; read-out: IC50 of inhibition effect on TGFβRI kinase ALK5 activity. The method, then:
The inhibition effect of TGFβRI kinase activity in vitro was determined by the following method.
The inhibition effect of the compounds of the present invention on TGFβRI kinase ALK5 activity was determined by the following experimental method:
(§1) TGFβRI kinase assay kit (V4093, Promega) was used to assay enzyme activity. 2 μl of enzyme solution (the final concentration of enzyme in the reaction system was 2 ng/μL) formulated with reaction buffer (40 mM Tris pH 7.5, 20 mM MgCl2, 0.1 mg/ml BSA), 1 μl of a 3-fold gradient dilution of the compounds dissolved in 5% DMSO, and 2 μl of a mixed solution of ATP and TGFβRI substrate peptide (the final concentration of ATP was 50 μM, and the final concentration of substrate was 0.2 μg/μL) were added successively to a 384-well plate (4514, Corning). After reaction at 27° C. for 2.5 hours, 5 μl of ADP-Glo solution in the kit was added to each well, then the plate was placed at 27° C. for 40 minutes. 10 μl of kinase assay reagent was then added to each well, then the plate was placed at 27° C. for 30 minutes. The chemiluminescence signal values were measured with a Victor 3 (PerkinElmer) multi-function microplate reader. The IC50 values of the compounds for enzyme inhibition were calculated using Graphpad prism software based on each concentration of the compound and the corresponding signal value thereof.

Data set [2] deals with NIH3T3 cell. Kind of data set: Inhibition of NIH3T3 cell proliferation (CellTiter-Glo). It counts as cell-based. The following applies: Mus musculus, 72 hours, 0.5% FBS. The method, then:
The inhibition effect of the compounds of the present invention on NIH3T3 cell proliferation was determined by the following in vitro test.
The inhibition effect of the compounds of the present invention on NIH3T3 cell proliferation was determined by the following experimental method:
On a 96-well white plate with transparent bottom (3903, Corning), 100 μL of NIH3T3 cell (GNM6, Cell Bank of Typical Culture Collection Committee of Chinese Academy of Sciences) was seeded in a DMEM medium containing 10% FBS in each well. The seeding density is 2000 cells/well. The cells were incubated overnight at 37° C., 5% CO2. After overnight incubation, each well was replaced with 90 μL of DMEM medium containing 0.5% FBS. 10 μl of a 3-fold gradient dilution of the compounds with DMEM medium containing 0.5% FBS was then added, and the plate was incubated for 72 hours in a cell incubator at 37° C., 5% CO2. Finally, 50 μL of CellTiter-Glo (G7573, Promega) was added to each well. After incubation for 10 minutes at room temperature, the chemiluminescence signal values were measured with a Victor 3 microplate reader (PerkinElmer). The IC50 values of the compounds were calculated using Graphpad Prism software based on each concentration of the compound and the corresponding signal value thereof.

Data set [3] has as its system Smad signaling pathway of TGFβRI. Kind of data set: Inhibition of Smad signaling pathway of TGFβRI (3TP-lux luciferase reporter in HepG2 cell). The class given is cell-based. The following applies: Homo sapiens; HepG2 cell, 3TP-lux plasmid, 18 hours; read-out: IC50 on the inhibition of Smad signaling pathway of TGFβRI. Here is the method: The inhibition effect of the compounds of the present invention on Smad signaling pathway of TGFβRI was determined by the following in vitro test.
The inhibition effect of the compounds of the present invention on Smad signaling pathway of TGFβRI was determined by the following experimental method:
The seeding density is 2.5×10^4 cells/well. The cells were incubated overnight at 37° C., 5% CO2. Each well was replaced with fresh EMEM medium containing 10% FBS. […] The cells were further incubated for 24 hours at 37° C., 5% CO2. Each well was replaced with 90 μL of EMEM medium containing 0.5% FBS, then the cells were starved for 6 hours. The compounds were formulated as a 20 mM stock solution, which was diluted in gradient to a 400× concentration with 100% DMSO, and further 40-fold diluted with EMEM containing 0.5% FBS. The cell culture plate was taken out, then 10 μl of diluted compound or control (0.25% DMSO) was added to each well respectively. The plate was shaken gently, then incubated for 18 hours in an incubator at 37° C., 5% CO2. Finally, 100 μl of detection reagent ONE-Glo™ Luciferase Assay (E6110, Promega) was added to each well, and the plate was placed in dark at room temperature for 10 minutes. The chemiluminescence signal values were measured with a Victor 3.0 (PerkinElmer). The IC50 values of the compounds were calculated using Graphpad Prism software based on each concentration of the compound and the corresponding signal value thereof.
Background: In a reporter assay the amount or activity of a reporter protein is the signal.

In data set [4] the target is p38α kinase (Homo sapiens (Human), UniProt Q16539). Kind of data set: Inhibition of p38α kinase activity (p38α kinase assay kit, ADP-Glo). The class given is biochemical. The note with it: ATP 50 μM; read-out: IC50 of inhibition effect on p38α kinase activity. Here is the method:
The inhibition of p38α kinase activity in vitro was determined by the following method.
The inhibition effect of the compounds of the present invention on p38a kinase activity was determined by the following experimental method:
as §1, with “p38α kinase” for “TGFβRI kinase”, “kit (V9591,” for “kit (V4093,”, “was 0.5” for “was 2”, “and p38” for “and TGFβRI”, “compounds on” for “compounds for”
(ADP-Glo turns the ADP formed in a reaction into a luminescent signal.)

Data set [5] can be described thus: Pharmacokinetics assay in rats after intragastrical administration. It counts as in vivo. The note with it: both sexes, Sprague-Dawley, rat, plasma, po, SD rats, 2 mg/kg. The method, then: Rats were used as test animals. The drug concentration in plasma at different time points was determined by LC/MS/MS method after intragastrical administration of the compounds of Examples 1-1, 1-2, 2-1, 3-1, the compound with retention time of 6.631 minutes among Examples 9-1 and 9-2, and the compounds of Examples 33 and 39-1 to rats. The pharmacokinetic behavior of the compounds of the present invention was studied and evaluated in rats.
Compounds of Examples 1-1, 1-2, 2-1, 3-1, compound with retention time of 6.631 minutes among Examples 9-1 and 9-2, and compounds of Examples 33 and 39-1.
Twenty-eight healthy adult Sprague-Dawley (SD) rats (half male and half female) were purchased from SINO-BRITISH SIPPR/BK LAB. ANIMAL LTD., CO, with Certificate No.: SCXK (Shanghai) 2008-0016, and equally divided into 7 groups (4 rats per group).
A certain amount of the test compound was weighed, and added with 5% by volume of DMSO, 5% by volume of Tween 80, and 90% by volume of physiological saline were added to prepare a 0.2 mg/mL colorless, clear and transparent solution.
After an overnight fast, SD rats were administered intragastrically the test compounds at an administration dosage of 2.0 mg/kg and an administration volume of 10.0 mL/kg.
The rats were intragastrically administered the compounds of Examples 1-1, 1-2, 2-1, 3-1, the compound with retention time of 6.631 minutes among Examples 9-1 and 9-2, and the compounds of Examples 33 and 39-1.0.2 mL of blood was taken from the orbital sinus before administration and at 0.5, 1.0, 2.0, 4.0, 6.0, 8.0, 11.0 and 24.0 hours after administration. The samples were stored in heparinized tubes, and centrifuged for 10 minutes at 4° C. at 3,500 rpm to separate the blood plasma. The plasma samples were stored at −20° C. The rats were fed 2 hours after administration.
The content of the test compounds in the plasma of rats after intragastrical administration of the test compounds at different concentrations was determined: 25 μL of rat plasma at each time after administration was taken, added with 50 μL (100 ng/mL) of the internal standard solution of camptothecin and 175 μL of acetonitrile, shaken vertically for 5 minutes, and centrifuged for 10 minutes (4000 rpm). 3.0 μL of the supernatant was taken from the plasma samples for LC/MS/MS analysis.

Structures are written as SMILES.

TGFβRI kinase ALK5, sequence (P36897 34-503): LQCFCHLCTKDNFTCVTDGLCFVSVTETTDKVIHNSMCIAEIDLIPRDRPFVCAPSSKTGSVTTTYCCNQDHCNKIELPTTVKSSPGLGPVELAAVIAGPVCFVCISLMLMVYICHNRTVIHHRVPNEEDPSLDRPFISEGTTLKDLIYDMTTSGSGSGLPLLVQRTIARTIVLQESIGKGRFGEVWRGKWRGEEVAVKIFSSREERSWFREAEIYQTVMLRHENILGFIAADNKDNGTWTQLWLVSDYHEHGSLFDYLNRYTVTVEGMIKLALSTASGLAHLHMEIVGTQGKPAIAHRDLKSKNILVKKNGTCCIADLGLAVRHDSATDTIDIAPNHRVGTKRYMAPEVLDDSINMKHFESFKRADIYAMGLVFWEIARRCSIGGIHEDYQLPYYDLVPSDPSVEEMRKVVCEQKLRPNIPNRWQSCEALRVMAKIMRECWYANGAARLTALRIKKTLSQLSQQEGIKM
p38α kinase, sequence (Q16539 whole entry): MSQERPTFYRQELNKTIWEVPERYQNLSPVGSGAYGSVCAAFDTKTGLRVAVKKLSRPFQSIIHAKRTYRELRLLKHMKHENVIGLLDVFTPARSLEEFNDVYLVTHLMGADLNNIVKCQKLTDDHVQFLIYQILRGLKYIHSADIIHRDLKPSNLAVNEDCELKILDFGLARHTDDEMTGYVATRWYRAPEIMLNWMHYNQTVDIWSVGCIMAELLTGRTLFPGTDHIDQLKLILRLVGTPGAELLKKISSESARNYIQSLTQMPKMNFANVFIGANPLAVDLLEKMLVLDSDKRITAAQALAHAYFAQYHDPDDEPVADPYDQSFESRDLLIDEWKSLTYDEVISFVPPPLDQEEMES

On to `Cc1cccc(-c2nc3n(c2-c2ccc4ncnn4c2)C2CCC3C2)n1` (stereo not shown) [Example 11, 3-([1,2,4]Triazolo[1,5-a]pyridin-6-yl)-2-(6-methylpyridin-2-yl)-5,6,7,8-tetrahydro-5,8-methanoimidazo[1,2-a]pyridine], for which the IC50 in data set [1] came to 16 nM; in data set [2] it was 37 nM; in data set [3], 26 nM.
The matching figures for `NC(=O)c1ccnc2ccc(-c3c(-c4ccccn4)nc4n3[C@H]3CC[C@@H]4C3)cc12` [Example 45-1, 6-((5S,8R)-2-(Pyridin-2-yl)-5,6,7,8-tetrahydro-5,8-methanoimidazo[1,2-a]pyridin-3-yl) quinoline-4-carboxamide]: 29 nM, 51 nM and 32 nM.
Take `Cc1cccc(-c2nc3n(c2-c2ccc4nccnc4c2)C2CCC3C2)n1` (stereo not shown) [Example 6, 2-(6-Methylpyridin-2-yl)-3-(quinoxalin-6-yl)-5,6,7,8-tetrahydro-5,8-methanoimidazo[1,2-a]pyridine]: the IC50 in data set [1] worked out at 26 nM; in data set [2] it was 22 nM; in data set [3], 21 nM.
Taken in the same sequence, the figures for `Cc1cccc(-c2nn3c(c2-c2ccc4ncnn4c2)C2CCC3CC2)n1` [Example 38, 3-([1,2,4]Triazolo[1,5-a]pyridin-6-yl)-2-(6-methylpyridin-2-yl)-4,5,6,7-tetrahydro-4,7-ethanopyrazolo[1,5-a]pyridine] were 9 nM, 33 nM and 11 nM.
In the case of `Cc1cccc(-c2nc3n(c2-c2cc4cnccc4s2)C2CCC3C2)n1` (stereo not shown) [Example 10, 2-(2-(6-Methylpyridin-2-yl)-5,6,7,8-tetrahydro-5,8-methanoimidazo[1,2-a]pyridin-3-yl) thieno[3,2-c]pyridine], the results for the 50% inhibitory concentration (IC50) in data set [1], in data set [2] and in data set [3] were 25 nM, 41 nM and 23 nM, respectively.
For `Cc1cccc(-c2nc3n(c2-c2ccnc(-c4cnn(C)c4)c2)C2CCC3C2)n1` (stereo not shown) [Example 12, 3-(2-(1-Methyl-1H-pyrazol-4-yl)pyridin-4-yl)-2-(6-methylpyridin-2-yl)-5,6,7,8-tetrahydro-5,8-methanoimidazo[1,2-a]pyridine], the IC50 in data set [1] turned out to be 9 nM; in data set [4], 454 nM; in data set [2], 13 nM; in data set [3] it was 33 nM.
Take `Cc1cccc(-c2nn3c(c2-c2ccnc(-c4ccc(S(C)(=O)=O)cc4)c2)C2CCC3CC2)n1` [Example 33, 2-(6-Methylpyridin-2-yl)-3-(2-(4-(methylsulfonyl)phenyl)pyridin-4-yl)-4,5,6,7-tetrahydro-4,7-ethanopyrazolo[1,5-a]pyridine]: the values for the IC50 in data set [1], in data set [4] and in data set [3] were 34 nM, 563 nM and 87 nM, respectively. Moreover, the Vd/F in data set [5] (read-out: Apparent distribution volume Vz/F) came to 16.4 ± 10.7 L/kg. Besides, the area under the curve (AUC) in data set [5] (read-out: Area under curve AUC) came out at 228 ± 159 ng·h/mL. Moreover, the CL/F in data set [5] (read-out: Clearance CLz/F) came to 193 ± 95 mL/min/kg. Further, the half-life in data set [5] (read-out: Half-life T1/2 (converted)) is 0.973 ± 0.3 h. In data set [5] (read-out: Plasma concentration Cmax), the Cmax turned out to be 178 ± 113 ng/mL. The MRT in data set [5] (read-out: Residence time MRT) was found to be 1.2 ± 0.35 h.
In the case of `NC(=O)c1nnc2ccc(-c3c(-c4ccc(F)cn4)nc4n3C3CCC4C3)cn12` (stereo not shown) [Example 9, 6-(2-(5-Fluoropyridin-2-yl)-5,6,7,8-tetrahydro-5,8-methanoimidazo[1,2-a]pyridin-3-yl)-[1,2,4]triazolo[4,3-a]pyridine-3-carboxamide], the IC50 in data set [1] came out at 43 nM; in data set [2], 91 nM; in data set [3], 82 nM.
In the case of `Cc1cccc(-c2nc3n(c2-c2ccc4ncc(OCCO)nc4c2)C2CCC3C2)n1` (stereo not shown) [Example 7, 2-((7-(2-(6-Methylpyridin-2-yl)-5,6,7,8-tetrahydro-5,8-methanoimidazo[1,2-a]pyridin-3-yl)quinoxalin-2-yl)oxy)ethanol], the figures for the concentration for half-maximal inhibition (IC50) in data set [1], in data set [2] and in data set [3] were 20 nM, 23 nM and 6 nM, respectively.
